{
  "source": "ChEMBL document CHEMBL5390201",
  "about": "“The Natural Alkaloid (-)-N-Hydroxyapiosporamide Suppresses Colorectal Tumor Progression as an NF-κB Pathway Inhibitor by Targeting the TAK1-TRAF6 Complex” (J Nat Prod, 2023)",
  "key": {"[1]": {"experiment": "Half life in ip dosed mouse", "format": "ADME, organism-based", "conditions": "in vivo"}, "[2]": {"tested_on": "HCT-15", "experiment": "Cytotoxicity against human HCT-15 cells assessed as decrease in cell viability incubated for 48 hrs by SRB assay", "format": "functional, cell-based", "conditions": "HCT-15, 48 h"}, "[3]": {"tested_on": "HT-29", "experiment": "Cytotoxicity against human HT-29 cells assessed as decrease in cell viability incubated for 48 hrs by SRB assay", "format": "functional, cell-based", "conditions": "HT-29, 48 h"}, "[4]": {"tested_on": "SW-620", "experiment": "Cytotoxicity against human SW620 cells assessed as decrease in cell viability incubated for 48 hrs by SRB assay", "format": "functional, cell-based", "conditions": "SW-620, 48 h"}, "[5]": {"tested_on": "SW480", "experiment": "Cytotoxicity against human SW480 cells assessed as decrease in cell viability incubated for 48 hrs by SRB assay", "format": "functional, cell-based", "conditions": "SW480, 48 h"}, "[6]": {"tested_on": "RKO", "experiment": "Cytotoxicity against human RKO cells assessed as decrease in cell viability incubated for 48 hrs by SRB assay", "format": "functional, cell-based"}, "[7]": {"tested_on": "HCT-116", "experiment": "Cytotoxicity against human HCT-116 cells assessed as decrease in cell viability incubated for 48 hrs by SRB assay", "format": "functional, cell-based", "conditions": "HCT-116, 48 h"}},
  "note": "pIC50: −log10 of the molar value.",
  "data": [
    {"smiles": "O=c1[nH]cc(F)c(=O)[nH]1", "note": "[FLUOROURACIL]", "values": [
      {"measurement": "half-life", "setting": "[1]", "value": 1.36, "unit": "h"},
      {"measurement": "pIC50", "setting": "[2]", "value": 4.92},
      {"measurement": "pIC50", "setting": "[3]", "value": 4.92},
      {"measurement": "pIC50", "setting": "[4]", "value": 4.92},
      {"measurement": "pIC50", "setting": "[5]", "value": 4.92},
      {"measurement": "pIC50", "setting": "[6]", "value": 4.92},
      {"measurement": "pIC50", "setting": "[7]", "value": 4.92}
    ]}
  ]
}
